Laboratory results from patent US20250092010A1, “DIHYDRO-2H-ISOINDOLE ESTER COMPOUND” (Shanghai Maius Pharmaceutical Co. Ltd., priority 2021, published 2025).

Legend:
[1] = Pharmacokinetic assays after oral gavage administration to rats; assay type: in vivo, male SD rats; parameters: Tmax / AUC(0-∞): concentration or dose not given beside the values; AUMC(0-t) / AUMC(0-∞): unit not given here; settings: for AUC(0-∞) / AUMC(0-t) / AUMC(0-∞) / CLz/F / Cmax / MRT(0-t) / MRT(0-∞) / Tmax / VRT(0-t) / VRT(0-∞) / t½z / AUC(0-t): plasma, oral gavage, male SD rats; for AUC(0-∞) / AUMC(0-t) / AUMC(0-∞) / CLz/F / Cmax / MRT(0-t) / MRT(0-∞) / Tmax / VRT(0-t) / VRT(0-∞) / t½z / AUC(0-t) / average retention time / time to peak concentration: active metabolite; for AUC(0-t): suspension in 0.5% CMC-Na; for AUC value of the active metabolite equivalent to % of that of the existing drugs: existing drugs administered at the same molar amount
Method: Instruments: ultra high performance liquid chromatography (Acquity UPLC, Waters) system; triple quadrupole mass spectrometer (Qtrap 5500, Sciex); high-speed refrigerated centrifuge (5430R, Eppendorf).
Chromatography Condition: Column: 2.1×50 mm (1.7 μm, BEH C18, Waters); Column Temperature: 45° C.; Mobile Phase: 0.1% aqueous solution of formic acid (A)/acetonitrile; Gradient: see the table below: […]
Mass Spectrometry Condition: Mode: positive ion multiple reaction monitoring (MRM); Curtain Gas: 45 psi; Gas 1:45 psi; Gas 2:45 psi; Ion Source Temperature: 500° C.; Ion Source Voltage: 5000 V. Precursor ions (Q1), product ions (Q3) and collision energy (CE) of some compounds are listed in the table below:
Experimental Animals: male SD rats, 6 in each group, weighing 200-220 grams, fasting overnight before experimentation.
Preparation of Drugs: lenalidomide, as a reference drug, and the test compounds (Compounds 1-10) were accurately weighed and dispensed in 0.5% CMC-Na solutions, resulting in suspensions.
Drug Administration to and Blood Collection from Animals: the drugs were oral gavage administered to the rats, and 100-μl blood samples were taken before administration and 10 min, 20 min, 40 min, 1 h, 1.5 h, 2 h, 3 h, 5 h, 8 h, 12 h, 21 h, 24 h and 30 h after administration. Each sample was placed in an ice bath, centrifuged for plasma collection, frozen and stored.
Plasma drug concentration Data and Calculation of Pharmacokinetic Parameters: Plasma drug concentration data was processed using MultiQuan 3.0 (Sciex), and pharmacokinetic parameters were calculated using DAS 2.0 software. Plasma drug concentrations were measured in ug/L.

[2] = patients, cited from earlier work

| AUC(0-∞) [1] [ng·h/mL] | AUMC(0-t) [1] | AUMC(0-∞) [1] | CLz/F [1] [mL/min/kg] | Cmax [1] [ng/mL] | MRT(0-t) [1] [h] | MRT(0-∞) [1] [h] | Tmax [1] [h] | VRT(0-t) [1] [h^2] | VRT(0-∞) [1] | t½z [1] [h] | AUC(0-t) [1] [ng·h/mL] | average retention time [1] [h] | time to peak concentration [1] [h] | AUC value of the active metabolite equivalent to % of that of the existing drugs [1] [%] | SMILES | myelosuppression grade ([2]; 50 mg per day, 28th day of treatment) | maximum tolerated dose (MTD) ([2]; clinical study) [mg per day] |
| --- | --- | --- | --- | --- | --- | --- | --- | --- | --- | --- | --- | --- | --- | --- | --- | --- | --- |
| 456 ± 48.0 | 3126 ± 298.1 | 3360 ± 318.6 | 70 ± 16.7 | 95.6 ± 22.2 | 3.5 ± 0.6 | 3.6 ± 0.7 | 4.1 ± 0.8 | 10 ± 1.5 | 10.2 ± 1.5 h^2 | 3.0 ± 0.4 | 402.5 ± 51.6 | – | – | – | CCCCCCCCCCCCCCCCCCOC(=O)Nc1cccc2c1CN(C1CCC(=O)NC1=O)C2=O (centres unmarked) [Compound 9] | – | – |
| 421.5 ± 55.6 | 3596 ± 401.3 | 3689 ± 411.6 | 63.3 ± 15 | 105.3 ± 24.1 | 3.8 ± 0.5 | 3.9 ± 0.5 | 3.8 ± 1.1 | 9.8 ± 1.5 | 9.9 ± 1.6 h^2 | 2.9 ± 0.3 | 489.4 ± 50.3 | – | – | – | CCCCCCCCCCCOC(=O)Nc1cccc2c1CN(C1CCC(=O)NC1=O)C2=O (centres unmarked) [Compound 8] | – | – |
| 1765 ± 226.3 | 13691 ± 587.2 | 14002 ± 589.6 | 65 ± 13 | 163.2 ± 26.4 | 5.2 ± 0.7 | 5.2 ± 0.7 | 5 ± 0.9 | 14 ± 2.1 | 14.2 ± 2.2 h^2 | 3.1 ± 0.5 | 1568 ± 205.4 | – | – | – | CCC(CC)COC(=O)Nc1cccc2c1CN(C1CCC(=O)NC1=O)C2=O (centres unmarked) [Compound 10] | – | – |

Second part, the molecule before the results:

| SMILES | AUC(0-∞) [1] [ng·h/mL] | AUMC(0-t) [1] | AUMC(0-∞) [1] | CLz/F [1] [mL/min/kg] | Cmax [1] [ng/mL] | MRT(0-t) [1] [h] | MRT(0-∞) [1] [h] | Tmax [1] [h] | VRT(0-t) [1] [h^2] | VRT(0-∞) [1] | t½z [1] [h] | AUC(0-t) [1] [ng·h/mL] | average retention time [1] [h] | time to peak concentration [1] [h] | AUC value of the active metabolite equivalent to % of that of the existing drugs [1] [%] | myelosuppression grade ([2]; 50 mg per day, 28th day of treatment) | maximum tolerated dose (MTD) ([2]; clinical study) [mg per day] |
| --- | --- | --- | --- | --- | --- | --- | --- | --- | --- | --- | --- | --- | --- | --- | --- | --- | --- |
| Cc1oc(=O)oc1COC(=O)Nc1cccc2c1CN(C1CCC(=O)NC1=O)C2=O (centres unmarked) [Compound 6] | 5229.3 ± 755.1 | 44683.6 ± 4956.6 | 45199.7 ± 4922.6 | 98.3 ± 17 | 405.4 ± 89.8 | 8.6 ± 0.6 | 8.7 ± 0.6 | 7 ± 1.5 | 20 ± 2.5 | 21.8 ± 2.8 h^2 | 2.9 ± 0.4 | 5217 ± 754.8 | 8.6 | 7 | 61 | – | – |
| CC(C)OC(=O)Nc1cccc2c1CN(C1CCC(=O)NC1=O)C2=O (centres unmarked) [Compound 1] | 3889.6 ± 435.6 | 32705.8 ± 3125.3 | 33484.2 ± 3040.7 | 71.7 ± 17 | 543.6 ± 68.5 | 4.5 ± 0.7 | 4.6 ± 0.6 | 0.8 ± 0.4 | 13 ± 2.2 | 14.3 ± 2.1 h^2 | 2.8 ± 0.3 | 3822 ± 424.5 | 4.5 | 0.8 | 45 | – | – |
| CCCCCCOC(=O)Nc1cccc2c1CN(C1CCC(=O)NC1=O)C2=O (centres unmarked) [Compound 5] | 1257 ± 209.6 | 8749 ± 352.6 | 8954 ± 336.4 | 70 ± 15 | 158 ± 31.1 | 4 ± 0.5 | 1.1 ± 0.6 | 4 ± 0.5 | 11 ± 1.8 | 11.8 ± 2.1^ h^2 | 3.0 ± 0.3 | 1022 ± 214.5 | – | – | – | – | – |
| Nc1cccc2c1CN(C1CCC(=O)NC1=O)C2=O (centres unmarked) [reference drug, lenalidomide] | – | – | – | – | – | – | – | – | – | – | – | – | – | – | – | Grade 3 myelosuppression | 25 |
| CCCCCCCCOC(=O)Nc1cccc2c1CN(C1CCC(=O)NC1=O)C2=O (centres unmarked) [Compound 7] | 584.3 ± 50.3 | 3965 ± 415.1 | 4123 ± 446.1 | 68.3 ± 18.3 | 135 ± 23.0 | 3.8 ± 0.7 | 3.8 ± 0.8 | 3.5 ± 0.8 | 10 ± 1.3 | 10.5 ± 1.3 h^2 | 3.1 ± 0.2 | 503.2 ± 42.6 | – | – | – | – | – |
